Common to all, as to type: physicochemical
Data set [1] can be described thus: CIELAB color data and optical density of printed ink patches (Gretag-McBeth Spectolino/Spectrascan). The settings on record: dye alone in ink. The source says:
CIELAB Color System-Space: The CIELAB color system was established by the Commission Internationale de l'Eclairage (CIE) in 1976. It is color space to be used for the specification of color differences. The L* is a correlate to perceived lightness ranging from 0.0 for black to 100.0 for a diffuse white. The a* and b* dimensions correlate approximately with red-green and yellow-blue chroma perceptions. They take on both negative and positive values. Their maximum values are limited by the physical properties of materials. The color difference (ΔE*ab) between two color points. (L*[…]) and (L*2, a*2, b2), is defined by the distance between the two points and computed by ΔE*ab=[(L*2−L*1)^2+(a*2−a*1)^2+(b*2−b*1)^2]^1/2
The cylindrical coordinate system provides predictors of lightness. L*, chroma, C*, and hue, H*. The chroma correlates the colorfulness of an area and the hue correlates the types of colors such as red, green, blue, yellow, etc. The relationship among a*, b*, C* and H* is given by C*=[a*2+b*2]^1/2 H*=tan^−1(b*/a*) a*=C* cos(H*) b*=C* sin(H*)
(§1) The color data was collected on a Gretag-McBeth Spectolino/Spectrascan with 100% coverage patches printed on Kodak Premium Photo Paper. Permanence was evaluated by measuring the relative fade of 0.6 OD yellow block printed on Ilford Printasia Glossy Photo Paper after 504 hours of exposure to 43-kLux cool white fluorescent illumination.

Data set [2] can be described thus: Permanence: relative fade of 0.6 OD yellow block under fluorescent illumination. The settings on record: dye alone in ink; for permanence (relative fade): 0.6 OD block on Ilford Printasia Glossy Photo Paper, 504 hours, 43-kLux cool white fluorescent, higher = more fade. Here is the method:
as §1

Data set [3] can be described thus: Aqueous solubility of dye.
[4] abbreviates: 3% by weight, Kodak Premium Photo Paper.

Turning to Acid Yellow 17, in data set [1] (3% by weight), the “H* (hue)” value came to 96.3, the “a*” value was −10.8, the “b*” value came out at 92.6 and the optical density was 1.3. Also, in data set [1] (setting [4]), the “C* (chroma)” value came out at 93.2. In data set [2] (3% by weight), the “lightfastness / permanence (in words)” value is recorded as “much better permanence” and the “permanence (relative fade)” value is recorded as 27.9%. This molecule also came in with an aqueous solubility in data set [3] of 19%.

As for Direct Yellow 132, in data set [1] (3.4% by weight), the “C* (chroma)” value amounted to 106.7, the “H* (hue)” value stood at 86.9, the “a*” value amounted to 5.9 and the “b*” value stood at 106.3. Further, the optical density in data set [1] (3.4% by weight) was 1.7. For the same molecule, the “permanence (relative fade)” value in data set [2] (3.4% by weight) came out at 18%. Moreover, the aqueous solubility in data set [3] was determined as 13%.

For the molecule `O=C([O-])C1=NN(c2ccc(S(=O)(=O)[O-])cc2)C(=O)C1N=Nc1ccc(S(=O)(=O)[O-])cc1.[Na+].[Na+].[Na+]` (centres unmarked) [Acid Yellow 23, reference compound], in data set [1] (3% by weight), the “H* (hue)” value was 89.5, the “a*” value is listed as 1.0, the “b*” value turned out to be 110.3 and the optical density came to 1.5. Besides, the “C* (chroma)” value in data set [1] (setting [4]) came out at 110.3. Further, in data set [2] (3% by weight), the “lightfastness / permanence (in words)” value is “extremely poor lightfastness” and the “permanence (relative fade)” value is recorded as 86.6%. Also, in data set [3], the aqueous solubility is listed as 40%.

Values taken from patent US7040746B2, “Inkjet ink having yellow dye mixture” (Lexmark International, Inc., priority 2003, dated 2006).
